The values that follow come from ChEMBL document CHEMBL4312023, “Design of novel monoamine oxidase-B inhibitors based on piperine scaffold: Structure-activity-toxicity, drug-likeness and efflux transport studies” (Eur J Med Chem, 2020).

Data set [1] is described as follows: Cytotoxicity against human Caco2 cells assessed as cellular metabolic activity by measuring resazurin reduction at 10 to 50 uM incubated for 24 hrs followed by incubation with resazurin for 1 hr by fluorescence based assay (reference value: >85%). The data set is classed as ADME, cell-based. Particulars: Caco-2 cells, read-out: Activity. In general terms: Resazurin is reduced to fluorescent resorufin, in cell work by metabolically active cells.

The nature of data set [2]: Chromatographic hydrophobicity index of compound at 250 uM at pH 7.4 by HPLC analysis. The data set is classed as ADME. Particulars: pH 7.4, 250 µM.
A short description of data set [3]: Chromatographic hydrophobicity index, log D of compound at 250 uM at pH 7.4 by HPLC analysis. Particulars: buffer. The class given is physicochemical.
A short description of data set [4]: Retention time of compound at pH 7.4 by LC-UV analysis. The class given is physicochemical. Particulars: buffer.
For data set [5], the target named is T1, ATP-dependent translocase ABCB1 (Homo sapiens, UniProt P08183). As to the kind of experiment: Inhibition of P-gp in human Caco2 cells assessed as decrease in Rho123 efflux by measuring decrease in ratio between fluorescence intensity of Zos-inhibited Rho123 accumulation and fluorescence intensity of non-inhibited Rho123 accumulation at 10 uM using Rho123 as substrate preincubated for 30 mins in presence of 5 uM P-gp inhibitor, Zos followed by incubation with Rhodamine 123 for 90 mins by fluorescence spectroscopy analysis. The class given is cell-based. Particulars: 1.5 h.

Data set [6] in a line: Stability of compound in DMSO-d6 and D2O (7:3) measured after 30 mins to 1 hr in presence of glutathione by thiol trapping assay based 1H-NMR analysis. The data set is classed as physicochemical.
Data set [7] is described as follows: Cytotoxicity against human SH-SY5Y cells assessed as lysosomal activity by measuring neutral red uptake at 10 to 50 uM incubated for 24 hrs followed by incubation with neutral red solution for 2 hrs by microplate reader analysis (reference value: >85%). The class given is cell-based. Particulars: SH-SY5Y cells, read-out: Activity.
Data set [8] in a line: Cytotoxicity against human SH-SY5Y cells assessed as cellular metabolic activity by measuring resazurin reduction at 10 to 50 uM incubated for 24 hrs followed by incubation with resazurin for 2 hrs by fluorescence based assay (reference value: >85%). The class given is ADME, cell-based. Particulars: SH-SY5Y cells, read-out: Activity.
For data set [9], the target named is T2, Amine oxidase [flavin-containing] B (Homo sapiens, UniProt P27338).
T2 sequence (P27338 whole entry): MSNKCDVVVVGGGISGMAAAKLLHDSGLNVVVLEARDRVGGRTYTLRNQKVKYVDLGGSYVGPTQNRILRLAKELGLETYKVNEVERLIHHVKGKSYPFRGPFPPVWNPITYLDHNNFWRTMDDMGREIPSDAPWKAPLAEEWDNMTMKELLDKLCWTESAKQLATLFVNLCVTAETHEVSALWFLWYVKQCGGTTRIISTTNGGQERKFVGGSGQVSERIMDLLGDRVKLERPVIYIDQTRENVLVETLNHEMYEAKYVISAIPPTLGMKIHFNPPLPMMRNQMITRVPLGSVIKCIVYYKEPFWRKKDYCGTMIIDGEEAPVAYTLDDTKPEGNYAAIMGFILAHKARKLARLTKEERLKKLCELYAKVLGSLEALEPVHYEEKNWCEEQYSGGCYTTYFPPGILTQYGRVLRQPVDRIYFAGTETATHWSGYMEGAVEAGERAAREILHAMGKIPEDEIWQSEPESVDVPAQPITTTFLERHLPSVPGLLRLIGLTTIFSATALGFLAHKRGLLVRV
As to the kind of experiment: Reversible inhibition of human microsomal MAO-B expressed in baculovirus infected BTI-TN-5B1-4 cells assessed as 4-hydroxyquinoline formation using kynuramine as substrate incubated up to 140 mins by spectrophotometric analysis. Particulars: bti-tn-5b1-4, 140 min.

Data set [10] deals with T2, Amine oxidase [flavin-containing] B. Description: Competitive inhibition of human microsomal MAO-B expressed in baculovirus infected BTI-TN-5B1-4 cells assessed as inhibition constant using kynuramine as substrate preincubated with substrate at varying concentrations for 10 mins followed by enzyme addition by Lineweaver-Burk plot analysis.
Data set [11] has the same target. Description: Competitive inhibition of human microsomal MAO-B expressed in baculovirus infected BTI-TN-5B1-4 cells assessed as constant Vmax using kynuramine as substrate preincubated with substrate at varying concentrations for 10 mins followed by enzyme addition by Lineweaver-Burk plot analysis.
Data set [12] shares this target. Description: Competitive inhibition of human microsomal MAO-B expressed in baculovirus infected BTI-TN-5B1-4 cells assessed as increase in substrate Km using kynuramine as substrate preincubated with substrate at varying concentrations for 10 mins followed by enzyme addition by Lineweaver-Burk plot analysis.
The species named for the next data set is Homo sapiens. Description: Selectivity index, ratio of IC50 for human microsomal MAO-A expressed in baculovirus infected […] cells to IC50 for human microsomal MAO-B expressed in baculovirus infected […] cells using kynuramine as substrate.
Data set [13] has as its target T2, Amine oxidase [flavin-containing] B. As to the kind of experiment: biochemical. The data set is classed as cell-based, BTI-TN-5B1-4.
Description: Inhibition of human microsomal MAO-B expressed in baculovirus infected BTI-TN-5B1-4 cells assessed as reduction in 4-hydroxyquinoline formation using kynuramine as substrate preincubated with substrate for 10 mins followed by enzyme addition by spectrophotometric analysis
Data set [14] is described as follows: Cytotoxicity against human Caco2 cells assessed as lysosomal activity by measuring neutral red uptake at 10 to 50 uM incubated for 24 hrs followed by incubation with neutral red solution for 1 hr by microplate reader analysis (reference value: >85%). Particulars: Caco-2 cells, read-out: Activity. The data set is classed as cell-based.
Data set [15] addresses T3, Amine oxidase [flavin-containing] A (Homo sapiens, UniProt P21397).
T3 sequence (P21397 whole entry): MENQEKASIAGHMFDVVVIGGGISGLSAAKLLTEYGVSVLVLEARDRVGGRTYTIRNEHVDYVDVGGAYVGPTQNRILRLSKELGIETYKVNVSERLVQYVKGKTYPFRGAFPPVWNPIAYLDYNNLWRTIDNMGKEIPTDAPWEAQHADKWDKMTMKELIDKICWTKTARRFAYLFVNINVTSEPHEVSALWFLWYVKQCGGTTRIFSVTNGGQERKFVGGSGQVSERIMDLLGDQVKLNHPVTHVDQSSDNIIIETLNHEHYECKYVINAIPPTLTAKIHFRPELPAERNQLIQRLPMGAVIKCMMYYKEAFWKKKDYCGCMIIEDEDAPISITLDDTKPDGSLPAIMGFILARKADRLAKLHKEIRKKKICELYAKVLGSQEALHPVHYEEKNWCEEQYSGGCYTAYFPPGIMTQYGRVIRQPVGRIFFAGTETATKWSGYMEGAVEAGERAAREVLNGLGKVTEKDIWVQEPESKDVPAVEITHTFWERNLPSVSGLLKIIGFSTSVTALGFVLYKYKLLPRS
Particulars: BTI-TN-5B1-4, human, read-out: INH.
Description: Inhibition of human microsomal MAO-A expressed in baculovirus infected BTI-TN-5B1-4 cells assessed as reduction in 4-hydroxyquinoline formation at 10 uM using kynuramine as substrate preincubated with substrate for 10 mins followed by enzyme inhibition by spectrophotometric analysis

The next data set deals with SH-SY5Y. As to the kind of experiment: Induction of intracellular oxidative stress in human SH-SY5Y cells assessed as increase in reactive species level at 10 to 50 uM pretreated with DCFH-DA for 1.5 hrs followed by incubation with compound for 24 hrs by DCFH-DA dye based fluorescence assay relative to control. The class given is cell-based.
The target in data set [16] is T1, ATP-dependent translocase ABCB1. Description: Induction of P-gp in human Caco2 cells assessed as decrease in Rho123 intracellular accumulation by measuring increase in ratio between fluorescence intensity of Zos-inhibited Rho123 accumulation and fluorescence intensity of non-inhibited Rho123 accumulation at 10 uM using Rho123 as substrate preincubated for 30 mins in presence of 5 uM P-gp inhibitor, Zos followed by incubation with Rhodamine 123 for 90 mins by fluorescence spectroscopy analysis. The class given is cell-based. Particulars: 1.5 h.

The subject of another data set is Caco-2. As to the kind of experiment: Effect on P-gp protein expression in human Caco-2 cells at 10 uM incubated for 30 mins. The data set is classed as functional, cell-based.

pIC50, pKi: −log10 of the molar value. Calls of active or inactive are those of the source. The calls are words filed in the database; no cut-off is given here.

T1 sequence (P08183 whole entry): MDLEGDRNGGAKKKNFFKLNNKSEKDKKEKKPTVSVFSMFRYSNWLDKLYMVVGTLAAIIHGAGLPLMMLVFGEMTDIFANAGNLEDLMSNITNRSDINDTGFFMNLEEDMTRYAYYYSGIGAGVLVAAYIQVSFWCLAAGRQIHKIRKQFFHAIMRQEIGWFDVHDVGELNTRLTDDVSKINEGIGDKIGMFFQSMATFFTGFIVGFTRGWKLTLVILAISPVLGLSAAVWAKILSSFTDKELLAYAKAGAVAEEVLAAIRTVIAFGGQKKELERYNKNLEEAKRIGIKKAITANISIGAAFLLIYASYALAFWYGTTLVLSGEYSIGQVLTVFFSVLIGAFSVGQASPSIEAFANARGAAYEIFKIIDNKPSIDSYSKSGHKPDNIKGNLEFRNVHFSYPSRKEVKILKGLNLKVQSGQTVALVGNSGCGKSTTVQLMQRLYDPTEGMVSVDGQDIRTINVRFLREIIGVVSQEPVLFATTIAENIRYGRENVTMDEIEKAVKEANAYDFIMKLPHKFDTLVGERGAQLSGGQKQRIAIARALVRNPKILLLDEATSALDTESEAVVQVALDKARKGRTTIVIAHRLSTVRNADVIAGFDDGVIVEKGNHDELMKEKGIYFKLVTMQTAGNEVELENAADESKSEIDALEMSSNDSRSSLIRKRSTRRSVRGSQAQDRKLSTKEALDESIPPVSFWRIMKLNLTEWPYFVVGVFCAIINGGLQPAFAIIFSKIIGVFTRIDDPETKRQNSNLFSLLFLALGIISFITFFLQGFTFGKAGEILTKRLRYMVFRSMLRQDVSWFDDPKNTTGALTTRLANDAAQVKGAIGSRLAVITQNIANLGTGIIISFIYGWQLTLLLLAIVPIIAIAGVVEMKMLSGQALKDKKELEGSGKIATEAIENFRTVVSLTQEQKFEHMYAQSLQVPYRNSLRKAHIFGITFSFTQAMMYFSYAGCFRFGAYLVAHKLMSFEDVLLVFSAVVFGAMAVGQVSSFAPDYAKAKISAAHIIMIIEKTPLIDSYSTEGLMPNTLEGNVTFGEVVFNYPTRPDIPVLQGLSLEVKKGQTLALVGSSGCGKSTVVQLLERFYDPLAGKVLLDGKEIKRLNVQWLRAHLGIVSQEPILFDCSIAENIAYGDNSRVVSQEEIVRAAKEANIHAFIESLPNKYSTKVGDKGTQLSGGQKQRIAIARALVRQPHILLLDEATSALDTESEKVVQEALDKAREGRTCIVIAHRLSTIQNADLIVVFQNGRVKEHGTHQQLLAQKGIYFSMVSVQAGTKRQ

Take `N#C/C(=C\C=C\c1ccc2c(c1)OCO2)C(=O)OCc1ccccc1`: the viability at 24 h, up to 50 µM in [1] and in [8] was above 85% each time. For the same compound, the CHI in data set [2] was 96.73. In data set [3], this compound displayed a chromatographic logD at 250 µM of 3.61. The compound also showed a Retention_time in data set [4] of 12.11 min. Also, the “inhibition (INH)” value in data set [5], in [9], in data set [11] and in data set [12] was “Active” in each case. Besides, in [6], the Stability result is “Stable”. Moreover, the viability at 24 h in data set [7] and in data set [14] was above 85% throughout. Further, in data set [10], the pKi was 7.36. Also, in the data set listed under Homo sapiens, the Ratio IC50 was above 211. In addition, the negative-log IC50 (pIC50) in data set [13] is 7.32. Further, in [15], the inhibition at 10 µM is below 50%.

Consider `N#C/C(=C\C=C\c1ccc2c(c1)OCO2)C(=O)N1CCCCC1`, for which the viability at 24 h, up to 50 µM in data set [1] and in [8] was above 85% throughout. The Activity is 111.1% in the data set on SH-SY5Y and “Not Active” in data set [16]. Also, the viability at 24 h in data set [7] and in data set [14] was above 85% throughout. Moreover, the pKi in data set [10] was 7.69. Further, the “inhibition (INH)” value in data set [11] and in data set [12] was “Active” in each case. In addition, in the data set filed under Homo sapiens, the Ratio IC50 was above 70. Further, the pIC50 in data set [13] was 6.84. For the same compound, in the data set on Caco-2, the outcome was inactive. In addition, in data set [15], the inhibition at 10 µM was below 50%.

As a reminder, the chromatographic logD is lipophilicity estimated from chromatographic retention. As usually defined, the pKi is the Ki on a negative log10 scale, so that one unit is a factor of ten. One may read the pIC50 as the IC50 on a negative log10 scale, so that one unit is a factor of ten.
